Assay results: patent US5441983A, “Treatment of infection by enveloped virus with calix(N)arene compounds” (Genelabs Incorporated, priority 1992, dated 1995)
Converted amounts (≈) assume the structure as drawn. Where two headings read alike, the source gives them in different places.

What was measured:
Influenza A (Taiwan) = experiment: Inhibition of influenza A cytopathic effect (clumping) in MDCK cells; format: cell-based, Influenza A virus (A/Taiwan strain); conditions: Influenza A virus, 24 h, 50% reduction in percent clumped cells, read-out: ED50 Influenza A (Taiwan)
Method: With virus infection, a cytopathic effect characterized by cell clumping is observed. For each compound tested, drug concentrations of 0.1, 1, 10, 25, and 100 μg/ml were added to cultured cells at the time of virus infection, as detailed in Examples 9 and 11. […] The inhibition of clumping was plotted as a function of drug concentration, to determine the dose effective to produce a 50% reduction in the percent clumped cells, measured with respect to control (no drug treatment).
Assays to assess the antiviral activity of KY- and Y-compounds in tissue culture were performed in 96-well flat-bottom tissue culture plates (Falcon 307), using conditions similar to those used in the cytotoxicity assays described above. In these assays, compound was tested in quadruplicate by serially diluting the compound in 2% FCS-MEM using serial two-fold dilutions (0.05 ml/well). A 0.05 ml volume of the appropriate virus containing approximately 100 median tissue culture infectious doses (TCID50) was then added to all wells except those set aside as antiviral and tissue control wells. Next, approximately 3×10^3 HEp2 cells (0.1 ml) were added to each well. Control wells containing antiviral and no virus (antiviral control), containing virus but no antiviral (virus control), or containing medium without virus or antiviral (tissue control), were included in each test. The challenge virus was then back titrated. All assay plates were incubated at 35° C. for 5 to 7 days in a 5% CO2 incubator.
The anti-influenza A activity of KY compounds was evaluated as described in Example 9, except that MDCK cells (kidney cell line) was used for infection in vitro by influenza virus (strain A/Taiwan).

HSV-2 = experiment: Plaque reduction assay, HSV-2, Vero cells; format: cell-based, HSV-2 (333); conditions: Human alphaherpesvirus 2, Vero
Method: (§1) used in Table 3 were further tested for activity against HSV infection in
(§2) a plaque reduction assay, as detailed in Example 6. Here Vero cells, after
(§3) overnight incubation, were exposed to serial dilutions of KY compound,
(§4) from 0.625-10 μg/ml, and HSV-1 or HSV-2 virus for two hours. After
(§5) washing to remove drug and extracellular virus, the cells were further
(§6) incubated for 2 days, then stained and counted for plaque formation.
(§7) Percent inhibition was determined by dividing plaques produced by total
(§8) number of plaques in infected, untreated controls. From the concentration
(§9) effect curve of plaque inhibition (expressed as percent of control), the
(§10) concentration of compound required to produce 50% plaque reduction,
(§11) IC50, was determined. The IC50 values for infection by HSV-1 and
(§12) HSV-2 infection is given in the right-hand columns in Table 3. With

HIV-HXB = experiment: Inhibition of syncytia formation, HIV-HXB (HTLV-IIIB); conditions: Human immunodeficiency virus 1, 18 h, read-out: HIV-HXB ED100, complete inhibition of syncytia formation
RSV = experiment: Inhibition of RSV cytopathic effect in HEp2 cells; format: cell-based; conditions: human respiratory syncytial virus, HEp-2; HEp2 cells, cytopathic effect; read-out: ED50 RSV
HIV-RF-II = experiment: Inhibition of syncytia formation, HIV-RF-II; conditions: for EC100: Human immunodeficiency virus 1, 18 h, read-out: HIV-RF-II ED100, complete inhibition of syncytia formation
Method: Briefly, cells chronically infected with HTLV-IIIB or RF-II HIV strains were incubated in the presence of serial dilutions of the selected KY compound, then further cocultured with indicator cells. The extent of syncytia formation was scored under phase microscopy.
Representative calix(n)arene compounds from Table 2 were tested for inhibition of cytopathic effects in cells infected with one of two HTLV-III strains, HTLV-IIIB and RF-II strains, as described in Example 12, and in the subsection above.
Human CD4^+ indicator cells (VB) and chronically infected H9 cells were maintained in RPMI-1640 medium supplemented with 5% fetal calf serum, 100 Units of penicillin per ml and 100 μg of streptomycin per ml at 37° C. in a humidified incubator containing 7% CO2.
For the fusion assay, serial dilutions between 1:2 and 1:2^8 of a selected KY compound, 1 mg/ml in PBS were made in a 96 well round bottom plate. The diluted KY compound was transferred to a 96 well flat-bottom plate. To each well was added 25 μg chronically infected H9 cells (at 2×10^6, cells/ml), or cells chronically infected with RF-II strain HIV, followed by incubation at 37° C. for 45 minutes. To each well was then added 25 μl VB cells (about 5×10^4 cells), and the cells and virus isolates were cocultured for 18 hours in a humid 5% CO2 atmosphere.

HSV-1 = experiment: Plaque reduction assay, HSV-1, Vero cells; format: cell-based, HSV-1 (Kos-1); conditions: Human alphaherpesvirus 1, Vero, plaque reduction, Vero cells
Method: as §1, §2, §3, §4, §5, §6, §7, §8, §9, §10, §11, §12

[1] = test system: panel of human cell lines; experiment: Cytotoxicity in proliferating human cell lines; format: cell-based; conditions: 72 h, read-out: IC50 drug concentration (50% cell death)
Method: In addition, a large number of representative aryl macrocyclic compounds (including those shown in Tables 1 and 2) were examined for toxicity in cell culture, using a panel of human cell lines, as detailed in Example 4. Briefly, the selected KY- or Y- compound was added to cell cultures at a final concentration of 5, 10, 25, 50, or 100 μg/ml. Three days later the cells were washed to remove drug, and stained with a vital stain, to determine the percentage of dead cells in each culture. The IC50 drug concentration, i.e., value concentration of drug which produced 50% cell death, was 50 μg/ml for KY-143, KY-151, and KY-163, and 100 μg/ml or greater for all of the other KY compounds tested. For KY-1, which has a molecular weight of 1404 daltons, a drug concentration of 100 μg/ml is equivalent to about […].
A panel of human cell lines was used to check the toxicity of the drugs, including: KB (nasopharyngeal carcinoma), HeLaS3 (cervical epithelial carcinoma), PLC (hepatocarcinoma), HepG2 (human hepatocarcinoma) HepG2T14 (hepatocarcinoma transfected with HBV), WI38 (normal human lung fibroblast), BT549 (breast cancer), SW480 ([…]), and A549 (lung cancer).
Three days later, the medium was removed and the cells were stained with Commassie Blue in 40% methanol and 7% acetic acid. The results are discussed in Section II above.

HSV-1 or HSV-2 = experiment: Inhibition of HSV cytopathic effect (CPE) in Vero cells; conditions: 10-20 μg/ml
Method: In the method reported in Example 5, Vero cells were infected with HSV-1 or HSV-2 and allowed to grow in culture until cytopathic effects were clearly visible. In the absence of infection, the cells form an even monolayer of fibro-blastlike cells. With HSV infection, a cytopathic effect characterized by round cells in suspension is clearly evident after 24 hours, followed by clumping and lysis of infected cells after 24-72 hours.
In the drug inhibition study reported in Example 5, cells were exposed to HSV-1 or HSV-2 virus and, at the same time, to a selected aryl macrocyclic compound, at a final drug concentration of 10 μg/ml. Twenty-four hours later the cells were examined for cytopathic effect.
Vero cells were maintained in RPMI-1640 medium supplemented with 5% fetal calf serum, 100 Units of penicillin per ml and 100 μg of streptomycin per ml at 37° C. in a humidified incubator containing 7% CO2. The HSV strains HSV-1 (Kos-1) and HSV-2 (333) were used.
1×10^5 Vero cells were plated in each well of a 96 well microtitre plate in 0.2 ml RPMI-1640 medium containing 5% FCS and 0.1% methyl cellulose (15 cps). After overnight incubation, and cell doubling, the medium was aspirated and replaced with 100 .1 of the same medium containing 2% FCS, and 50.1 control or drug solution to a final drug concentration of 10 μg/ml and 50 μl virus, containing about 3 PFU/cell, i.e., 6 x 10^s PFU/well, of HSV-1 or HSV-2.
The cells were cultured for 24 hours at 37° C. at which time cytopathic effects are clearly visible. In the absence of viral infection, the cells form an even monolayer of fibroblast cells. With viral infection, the cells form a suspension of round cells, followed by cell clumping, whose appearance is easily distinguishable from normal fibroblast cells. If no detectable cytopathic effect was produced, the test was repeated with 10 μg/ml. A parallel set of cells without virus inoculation were done as a control for cytotoxicity to Vero cells.

HSV-2 333 (DHPG)' = experiment: Inhibition of viral yield, drug-resistant HSV-2 333(DHPG)'; conditions: Human alphaherpesvirus 2, HeLa, read-out: ID90
Method: (§13) These compounds tested were the nucleoside analogs acyclovir (ACV), ganciclovir (DHPG), phosphonoformate (PFA), and phosphomethoxyethyladenine (PMEA). Inhibition of viral yield was determined, as above, by infecting Hela cells in the presence of wild type or drug-resistant strains of HSV-1 or HSV-2, and serial dilutions of a selected anti-viral compound, and infecting Vero cells with serial dilutions of the Hela cell lysate, as above.
(§14) The KOS (HSV-1) and 333 (HSV-2) are wild type viruses; the KOS(PMEA)' and KOS(PFA)' are drug-resistant HSV-1 strains having a DNA polymerase mutation. The 333(DHPG) strain is a drug-resistantHSV-2 strain having a thymidine kinase mutation.
(§15) The following strains of HSV-1 and HSV-2 virus were used: KOS, a wild type HSV-1 virus; KOS (PMEA) and KOS (PFA), both drug-resistant HSV-1 viruses having a DNA polymerase mutation; 333, a wild type HSV-2 HSV-2 virus, and 333 (DHPG), a drug-resistant HSV-2 virus having a thymidine kinase mutation.
(§16) After growth at 37° C. for 24 hours in 2 ml of RPMI-1640 containing 2% FCS and penicillin and streptomycin (P/S), the cells were frozen at -70° C. until the time for titration. The cells were freeze/thawed 3 times to release virus from the cells, serially diluted 10 fold, and the serial dilutions were added to Vero cells in culture. After 2 hours incubation at 37° C. the virus was removed and 0.5 ml methycellulose (4K cps) in RPMI-1640 and 2% FCS+P/S was added. Two days later, the medium was removed. The cells were stained in 0.8% crystal violet in 50% ethanol. The plaques formed were counted and the titer was calculated from the fold of dilutions. From the drug dose response, the concentration of each drug required to effect a 90% inhibition of virus yield, the IC90 concentration was determined.

HSV-1 KOS (PFA)' = experiment: Inhibition of viral yield, drug-resistant HSV-1 KOS(PFA)'; conditions: Human alphaherpesvirus 1, HeLa, read-out: ID90
Method: as §13, §14, §15, §16

HSV-2 333 = experiment: Inhibition of viral yield, wild type HSV-2 333; conditions: Human alphaherpesvirus 2, HeLa, read-out: ID90
Method: as §13, §14, §15, §16

HSV-1 KOS = experiment: Inhibition of viral yield, wild type HSV-1 KOS; conditions: Human alphaherpesvirus 1, HeLa, read-out: ID90
Method: as §13, §14, §15, §16

HSV-1 KOS(PMEA)' = experiment: Inhibition of viral yield, drug-resistant HSV-1 KOS(PMEA)'; conditions: Human alphaherpesvirus 1, HeLa, read-out: ID90
Method: as §13, §14, §15, §16

Row | SMILES | EC50 (Influenza A (Taiwan)) | IC50 (HSV-2) | EC100 (HIV-HXB) | EC50 (RSV) | IC50 (HSV-1) | protection from CPE, in words (HSV-1 or HSV-2) | EC100 (HIV-RF-II) | also measured
1 | COc1c2c(S(=O)(=O)O)cc3cc(S(=O)(=O)O)c(c(OC)c13)Cc1c(S(=O)(=O)O)cc3cc(S(=O)(=O)O)c(c(OC)c3c1OC)Cc1c(S(=O)(=O)O)cc3cc(S(=O)(=O)O)c(c(OC)c3c1OC)Cc1c(S(=O)(=O)O)cc3cc(S(=O)(=O)O)c(c(OC)c3c1OC)C2 [KY-151] | > 94 µg/mL | 1.8 µg/mL (≈ 1.25 µM) | 32 µg/mL | 1.5 µg/mL (≈ 1.04 µM) | 1.25 µg/mL (≈ 0.867 µM) | – | – | HIV-RF-II ED100 (HIV-RF-II; complete inhibition of syncytia formation): 125; IC50 ([1]; Homo sapiens): 50 µg/mL (≈ 34.7 µM)
2 | COc1c2c(S(=O)(=O)O)cc3cc(S(=O)(=O)O)c(c(OC)c13)CN(C)Cc1c(S(=O)(=O)O)cc3cc(S(=O)(=O)O)c(c(OC)c3c1OC)CN(C)Cc1c(S(=O)(=O)O)cc3cc(S(=O)(=O)O)c(c(OC)c3c1OC)CN(C)Cc1c(S(=O)(=O)O)cc3cc(S(=O)(=O)O)c(c(OC)c3c1OC)CN(C)C2 [KY-395] | – | – | – | – | – | low activity | – | –
3 | COS(=O)(=O)c1cc2cc(S(=O)(=O)OC)c3c(O)c2c(O)c1Cc1c(S(=O)(=O)OC)cc2cc(S(=O)(=O)OC)c(c(O)c2c1O)Cc1c(S(=O)(=O)OC)cc2cc(S(=O)(=O)OC)c(c(O)c2c1O)Cc1c(S(=O)(=O)OC)cc2cc(S(=O)(=O)OC)c(c(O)c2c1O)C3 [KY-175] | – | > 10 µg/mL | 63 µg/mL | – | > 10 µg/mL | low activity | 250 µg/mL | –
4 | C=CC1c2c(S(=O)(=O)O)cc3cc(S(=O)(=O)O)c(c(O)c3c2O)C(C=C)c2c(S(=O)(=O)O)cc3cc(S(=O)(=O)O)c(c(O)c3c2O)C(C=C)c2c(S(=O)(=O)O)cc3cc(S(=O)(=O)O)c(c(O)c3c2O)C(C=C)c2c(S(=O)(=O)O)cc3cc(S(=O)(=O)O)c1c(O)c3c2O (stereo not drawn) [KY-97] | 5 µg/mL (≈ 3.49 µM) | > 10 µg/mL | 32 µg/mL | 0.5 µg/mL (≈ 0.349 µM) | > 10 µg/mL | – | – | –
5 | CS(=O)(=O)c1cc2cc(S(C)(=O)=O)c3c(O)c2c(O)c1Cc1c(S(C)(=O)=O)cc2cc(S(C)(=O)=O)c(c(O)c2c1O)Cc1c(S(C)(=O)=O)cc2cc(S(C)(=O)=O)c(c(O)c2c1O)Cc1c(S(C)(=O)=O)cc2cc(S(C)(=O)=O)c(c(O)c2c1O)C3 [KY-158] | – | > 10 µg/mL | 500 µg/mL | – | > 10 µg/mL | low activity | 7500 µg/mL | –
6 | Nc1nc(O)c2ncn(COC(CO)CO)c2n1 [DHPG, ganciclovir] | – | – | – | – | – | – | – | IC90 (HSV-2 333 (DHPG)'): 215 µM; IC90 (HSV-1 KOS (PFA)'): 1 µM; IC90 (HSV-2 333): 2 µM; IC90 (HSV-1 KOS): 2 µM
7 | O=S(=O)(O)c1c2c(O)c3c(O)c(c(S(=O)(=O)O)c(Br)c3c1Br)Cc1c(S(=O)(=O)O)c(Br)c3c(Br)c(S(=O)(=O)O)c(c(O)c3c1O)Cc1c(S(=O)(=O)O)c(Br)c3c(Br)c(S(=O)(=O)O)c(c(O)c3c1O)Cc1c(S(=O)(=O)O)c(Br)c3c(Br)c(S(=O)(=O)O)c(c(O)c3c1O)C2 [KY-194] | 7.9 µg/mL (≈ 4.03 µM) | 1 µg/mL (≈ 0.51 µM) | 63 µg/mL | 0.5 µg/mL (≈ 0.255 µM) | 1 µg/mL (≈ 0.51 µM) | – | 125 µg/mL | –
8 | CNS(=O)(=O)c1cc2cc(S(=O)(=O)NC)c3c(O)c2c(O)c1Cc1c(S(=O)(=O)NC)cc2cc(S(=O)(=O)NC)c(c(O)c2c1O)Cc1c(S(=O)(=O)NC)cc2cc(S(=O)(=O)NC)c(c(O)c2c1O)Cc1c(S(=O)(=O)NC)cc2cc(S(=O)(=O)NC)c(c(O)c2c1O)C3 [KY-147] | – | > 10 µg/mL | 250 µg/mL | – | > 10 µg/mL | low activity | 250 µg/mL | –
9 | O=C(O)P(=O)(O)O [PFA, phosphonoformate] | – | – | – | – | – | – | – | IC90 (HSV-1 KOS (PFA)'): > 1000 µM; IC90 (HSV-1 KOS(PMEA)'): 3000 µM; IC90 (HSV-2 333): 150 µM; IC90 (HSV-1 KOS): 180 µM
10 | CCNS(=O)(=O)c1cc2cc(S(=O)(=O)NCC)c3c(O)c2c(O)c1Cc1c(S(=O)(=O)NCC)cc2cc(S(=O)(=O)NCC)c(c(O)c2c1O)Cc1c(S(=O)(=O)NCC)cc2cc(S(=O)(=O)NCC)c(c(O)c2c1O)Cc1c(S(=O)(=O)NCC)cc2cc(S(=O)(=O)NCC)c(c(O)c2c1O)C3 [KY-148] | – | – | 250 µg/mL | – | – | low activity | – | –
11 | O=S(=O)(O)c1c2c(O)c3c(O)c(c(S(=O)(=O)O)c(O)c3c1O)Cc1c(S(=O)(=O)O)c(O)c3c(O)c(S(=O)(=O)O)c(c(O)c3c1O)Cc1c(S(=O)(=O)O)c(O)c3c(O)c(S(=O)(=O)O)c(c(O)c3c1O)Cc1c(S(=O)(=O)O)c(O)c3c(O)c(S(=O)(=O)O)c(c(O)c3c1O)C2 [KY-143] | – | > 10 µg/mL | 250 µg/mL | – | > 10 µg/mL | low activity | 125 µg/mL | IC50 ([1]; panel of human cell lines, 3 days): 50 µg/mL (≈ 34.3 µM)
12 | O=S(O)c1cc2cc(S(=O)O)c3c(O)c2c(O)c1Cc1c(S(=O)O)cc2cc(S(=O)O)c(c(O)c2c1O)Cc1c(S(=O)O)cc2cc(S(=O)O)c(c(O)c2c1O)Cc1c(S(=O)O)cc2cc(S(=O)O)c(c(O)c2c1O)C3 [KY-123] | 31.3 µg/mL (≈ 26.1 µM) | 1.5 µg/mL (≈ 1.25 µM) | 16 µg/mL | 1 µg/mL (≈ 0.832 µM) | 1.5 µg/mL (≈ 1.25 µM) | – | 16 µg/mL | –
13 | O=S(=O)(O)c1cc2cc(S(=O)(=O)O)c3c(O)c2c(O)c1C(C(O)CO)c1c(S(=O)(=O)O)cc2cc(S(=O)(=O)O)c(c(O)c2c1O)C(C(O)CO)c1c(S(=O)(=O)O)cc2cc(S(=O)(=O)O)c(c(O)c2c1O)C(C(O)CO)c1c(S(=O)(=O)O)cc2cc(S(=O)(=O)O)c(c(O)c2c1O)C3C(O)CO (stereo not drawn) [KY-48] | – | – | 250 µg/mL | – | – | low activity | – | –
14 | CC(=O)C1c2c(S(=O)(=O)O)cc3cc(S(=O)(=O)O)c(c(O)c3c2O)C(C(C)=O)c2c(S(=O)(=O)O)cc3cc(S(=O)(=O)O)c(c(O)c3c2O)C(C(C)=O)c2c(S(=O)(=O)O)cc3cc(S(=O)(=O)O)c(c(O)c3c2O)C(C(C)=O)c2c(S(=O)(=O)O)cc3cc(S(=O)(=O)O)c1c(O)c3c2O (stereo not drawn) [KY-110] | > 250 µg/mL | > 10 µg/mL | 63 µg/mL | 4 µg/mL (≈ 2.67 µM) | > 10 µg/mL | low activity | – | –
15 | Nc1ncnc2c1ncn2CCOCP(=O)(O)O [PMEA, phosphomethoxyethyladenine] | – | – | – | – | – | – | – | IC90 (HSV-2 333 (DHPG)'): 120 µM; IC90 (HSV-1 KOS (PFA)'): > 1000 µM; IC90 (HSV-1 KOS(PMEA)'): > 2000 µM; IC90 (HSV-2 333): 155 µM; IC90 (HSV-1 KOS): 100 µM
